Measurements published in patent US8633154B2, “Cyclodepsipeptides with antineoplastic activity and methods of using to inhibit cancer and microbial growth” (Arizona Board of Regents, a body corporate of the State of …, priority 2007, dated 2014).
≈ marks a conversion by molar mass, not a printed value.

Assays:
Assay type in all cases: cell-based
DU-145 = experiment: Human cancer cell line growth inhibition, DU-145
KM20L2 = experiment: Human cancer cell line growth inhibition, KM20L2
[1] = test system: Cryptococcus neoformans ATCC 90112; experiment: Broth microdilution susceptibility assay, Cryptococcus neoformans
From the text: (§1) Cyclodepsipeptides 1 and 2 were screened against the bacteria Stenotrophomonas maltophilia ATCC 13637, Micrococcus luteus Presque Isle 456, Staphylococcus aureus ATCC 29213, Escherichia coli ATCC 25922, Enterobacter cloacae ATCC 13047, Enterococcus faecalis ATCC 29212, Streptococcus pneumoniae ATCC 6303, Neisseria gonorrhoeae ATCC 49226, and the fungi Candida albicans ATCC 90028 and Cryptococcus neoformans ATCC 90112, according to established broth microdilution susceptibility assays.^15,16 Owing to a paucity of material, compound 2 was tested against S. maltophilia, M. luteus, S. aureus, E. coli and C. albicans only. Compounds were reconstituted in a small volume of sterile DMSO and diluted in the appropriate media immediately prior to susceptibility experiments. The minimum inhibitory concentration was defined as the lowest concentration of compound that inhibited all visible growth of the test organism (optically clear). Assays were repeated on separate days.

BXPC-3 = experiment: Human cancer cell line growth inhibition, BXPC-3
MCF-7 = experiment: Human cancer cell line growth inhibition, MCF-7
SF268 = experiment: Human cancer cell line growth inhibition, SF268
NCI-H460 = experiment: Human cancer cell line growth inhibition, NCI-H460
[2] = test system: Micrococcus luteus Presque Isle 456; experiment: Broth microdilution susceptibility assay, Micrococcus luteus
From the text: as §1

[3] = test system: Enterococcus faecalis ATCC 29212; experiment: Broth microdilution susceptibility assay, Enterococcus faecalis; details: ATCC29212, read-out: minimum inhibitory concentration [MIC]
From the text: as §1

Row | minimum inhibitory concentration [MIC] [2] [ng/mL] | SMILES | Inhibition of Human Cancer Cell Lines (GI50) DU-145 (DU-145) [ng/mL] | Inhibition of Human Cancer Cell Lines (GI50) KM20L2 (KM20L2) [ng/mL] | minimum inhibitory concentration [MIC] ([1]; broth microdilution) [ng/mL] | Inhibition of Human Cancer Cell Lines (GI50) BXPC-3 (BXPC-3) [ng/mL] | Inhibition of Human Cancer Cell Lines (GI50) MCF-7 (MCF-7) [ng/mL] | Inhibition of Human Cancer Cell Lines (GI50) SF268 (SF268) [ng/mL] | Inhibition of Human Cancer Cell Lines (GI50) NCI-H460 (NCI-H460) [ng/mL] | GI50 (DU-145; Homo sapiens, read-out: Inhibition of Human Cancer Cell Lines (GI50) DU-145) [ng/mL] | GI50 (KM20L2; Homo sapiens, KM-20L2, read-out: Inhibition of Human Cancer Cell Lines (GI50) KM20L2) [ng/mL] | MIC [3] [ng/mL] | MIC ([1]; ATCC90112, read-out: minimum inhibitory concentration [MIC]) [ng/mL] | GI50 (BXPC-3; Homo sapiens, read-out: Inhibition of Human Cancer Cell Lines (GI50) BXPC-3) [ng/mL] | GI50 (MCF-7; Homo sapiens, MCF7, read-out: Inhibition of Human Cancer Cell Lines (GI50) MCF-7) [ng/mL] | GI50 (SF268; Homo sapiens, SF-268, read-out: Inhibition of Human Cancer Cell Lines (GI50) SF268) [ng/mL] | GI50 (NCI-H460; Homo sapiens, read-out: Inhibition of Human Cancer Cell Lines (GI50) NCI-H460) [ng/mL]
1 | – | CCC(C)[C@@H]1OC(=O)[C@H](C)OC(=O)[C@@H](NC(=O)c2cccc(NC=O)c2O)[C@@H](C)OC(=O)[C@H](CC(C)C)OC(=O)C(C)(C)C(=O)[C@H](CC(C)C)NC1=O (stereo partly shown) [Cyclodepsipeptide 1, respirantin] | 0.18 | 0.6 | 2000 (≈ 2670 nM) | 470 | 0.6 | 1.6 | 0.6 | – | – | – | – | – | – | – | –
2 | 64000 (≈ 87200 nM) | CC[C@H](C)[C@@H]1OC(=O)[C@H](C)OC(=O)[C@@H](NC(=O)c2cccc(NC=O)c2O)[C@@H](C)OC(=O)[C@H](C(C)C)OC(=O)C(C)(C)C(=O)[C@H](CC(C)C)NC1=O [Cyclodepsipeptide 2] | <0.1 | 0.58 | – | 1200 | 0.62 | 16 | 0.63 | – | – | – | – | – | – | – | –
3 | – | CCC(C)[C@@H]1OC(=O)[C@H](C)OC(=O)[C@@H](NC(=O)c2cccc(N)c2O)[C@@H](C)OC(=O)[C@H](CC(C)C)OC(=O)C(C)(C)C(=O)[C@H](CC(C)C)NC1=O (stereo partly shown) [Cyclodepsipeptide 3, Kitastatin 1] | – | – | – | – | – | – | – | 2.6 (≈ 3.61 nM) | 2.4 (≈ 3.33 nM) | 64000 (≈ 88900 nM) | 64000 (≈ 88900 nM) | 6.6 (≈ 9.17 nM) | 4 (≈ 5.56 nM) | 3.5 (≈ 4.86 nM) | < 1
